From patent EP4119135A1, “METHODS FOR REBALANCING THE INTESTINAL FLORA IN PATIENTS SUFFERING FROM PARKINSON'S DISEASE” (Luxia Scientific, priority 2021, dated 2023)
Several values for one entry are separate records, joined by “and”; a condition that tells them apart may be missing. Identical values can stand only once. Entries after “also recorded” stand apart in the source; their conditions may differ.

Tests used:
Faecalibacterium = assay: Spearman correlation between estimated daily nutrient intake (food questionnaire) and relative abundance of the bacterial genus (16S sequencing of faecal samples); details: nutrient intake vs relative abundance of Faecalibacterium, whole cohort (215 individus)
Text: (§1) Les tests statistiques suivants ont été réalisés : • Corrélations non paramétriques de Spearman entre les apports en nutriments calculés et chacune des cinq bactéries d'intérêt. • Corrélations non paramétriques de Spearman entre les fréquences de consommation des aliments du questionnaire alimentaire et chacune des cinq bactéries d'intérêt. • Régressions ordinales entre les fréquences de consommation des aliments du questionnaire alimentaire et chacune des cinq bactéries d'intérêt.
(§2) Après avoir créé leur compte personnel sur le site internet de la société de Luxia Scientific, les clients peuvent remplir de manière volontaire un questionnaire alimentaire. Ce questionnaire possède neuf sous-groupes de questions, chacun constituant une catégorie d'aliments. À l'intérieur de ces sous-groupes, une liste complète d'aliments est fournie et donne aux personnes la possibilité de choisir la fréquence à laquelle elles ont consommé chaque aliment possible au cours du dernier mois dans une portion spécifiée.
(§3) Un tableau des apports nutritionnels par portion d'aliments présents dans le questionnaire a été ensuite créé. Pour créer ce tableau, la Table de composition alimentaire française Ciqual de l'ANSES du 07/07/2020 (https://ciqual.anses.fr/) a été utilisée.
(§4) L'apport en omégas-3 a été calculé en additionnant les valeurs d'apports en acide alpha-linolénique (18:3; ALA), en acide eïcosapentaénoïque (20:5; EPA) et en acide docosahexaénoïque (22:6; DHA). L'apport en omégas-6 a été calculé en additionnant les valeurs d'apports en acide linoléique (18:2; […]) et en acide arachidonique (20:4; ARA) qui sont les deux présents dans la Table Ciqual.
(§5) À cette étape, on possède d'une part les réponses des utilisateurs volontaires pour répondre au questionnaire alimentaire, et, d'autre part, on possède les apports nutritionnels mensuel pour chaque réponse possible de chaque aliment du questionnaire. Il convient ensuite de calculer la somme de tous les apports pour chaque réponse de l'individu au questionnaire, puis de la diviser par 30 pour obtenir l'apport nutritionnel quotidien moyen estimé pour cet individu.
(§6) On obtient ainsi un document décrivant les apports nutritionnels de 70 nutriments chez 288 individus.
(§7) Ces deux fichiers sont ainsi composés au final des données alimentaires de 288 individus. Au début de l'analyse, ont été supprimées les données de 2 individus qui sont des enfants de moins de 4 ans car à cet âge, leur microbiote est encore trop immature pour être représentatif des effets de l'alimentation sur leurs populations bactériennes. On utilise donc les données alimentaires de 286 individus pour les analyses de ce rapport.
(§8) Les résultats ayant servi à l'analyse du microbiote intestinal ont été générés en suivant le processus d'analyse du Dispositif Médical de Diagnostic In Vitro 1test1. En bref, les échantillons fécaux ont été prélevés avec un tube de collecte contenant un conservant afin de permettre le transport à température non controlée depuis l'utilisateur vers le laboratoire d'analyse (DNA/RNA Shield de Zymo Research). L'ADN a ensuite été extrait et le séquençage de la région v3-v4 ARN16s réalisé par le laboratoire IBBL au Luxembourg sur un séquenceur MiSeq d'Illumina selon le protocol en application (peut-être rajouter une référence publication). […]

Clostridium_XVIII = assay: as above; details: nutrient intake vs relative abundance of Clostridium_XVIII, whole cohort (215 individus)
Text: as §1, §2, §3, §4, §5, §6, §7, §8

Blautia = assay: as above; details: nutrient intake vs relative abundance of Blautia, whole cohort (215 individus)
Text: as §1, §2, §3, §4, §5, §6, §7, §8

microbiote intestinal = assay: Short-term colonic incubations (in vitro faecal fermentation, simplified SHIME) with faecal inocula of Parkinson and healthy donors; format: cell-based, humain; details: for pH (activité de fermentation): 0-48h
Text: Pour valider l'effet bénéfique des 5 nutriments d'intérêt sur le microbiote intestinal, une étude In Vitro a été réalisée sur des microbiotes reconstitués à partir de selles d'individus sains et de patients souffrant de la maladie de Parkinson. En particulier, l'effet bénéfique de l'apport de ces nutriments a été évalué à travers l'augmentation de la production de butyrate et d'acides gras à chaine courte en général, ainsi que les changements observés au niveau des métabolites.
Trois donneurs sains et deux donneurs atteints de la maladie de Parkinson ont été recrutés. Pour évaluer les effets de chacun des nutriments sur le microbiote intestinal des donneurs susmentionnés, des simulations coliques à court terme ont été effectuées. L'évaluation de chaque nutriment a été basée 1) sur les effets sur la fermentation microbienne globale (pH) et 2) sur l'activité métabolique microbienne (production de AGCC, de lactate et d'un panel d'environ 400 métabolites).
Les approches in vitro pour étudier le tractus gastro-intestinal et les processus microbiens intestinaux offrent une excellente configuration expérimentale pour étudier les processus qui se développent dans le microbiome intestinal humain. Le dépistage des effets de composés sélectionnés sur le microbiote intestinal peut être effectué au moyen d'une fermentation fécale réalisée dans un seul réacteur, ce qui permet d'évaluer la capacité de substrats spécifiques à moduler la composition et l'activité microbiennes intestinales. Ces expériences représentent une simulation simplifiée du Simulateur continu de l'écosystème microbien intestinal humain (SHIME®).
Les matières fécales ont été recueillies auprès de cinq donneurs (deux donneurs atteints de la maladie de Parkinson (PD) et trois donneurs sains (HD)).
Les matières fécales ont été recueillies dans des conteneurs anaérobies et conservées à la température du réfrigérateur jusqu'à un traitement ultérieur. Dans les 48 heures suivant la défécation, des suspensions fécales (15 % (p/v)) ont été préparées dans un tampon phosphate et mélangées dans un rapport 1 : 1 avec un cryoprotecteur optimisé en interne dans une chambre anaérobie. Les suspensions obtenues ont été immédiatement surgelées dans de l'azote liquide puis conservées à -80°C (cryostock). Juste avant l'expérience, les échantillons ont été décongelés et immédiatement ajoutés aux réacteurs, de sorte qu'un seul cycle de congélation-décongélation a été appliqué sur chaque inoculum individuel.
Un test de dépistage à court terme consiste généralement en une incubation colique d'une dose unique d'un composé d'essai dans des conditions représentatives du gros intestin proximal, en utilisant des inoculums bactériens provenant de donneurs sélectionnés comme sources microbiennes. Cinq traitements et une condition de référence (contrôle négatif) ont été testés par donneur. La composition du milieu dans le contrôle et les traitements est exactement la même, mais le contrôle ne contient pas l'ingrédient de test. Le contrôle est inclus pour déterminer les changements de base dans les différents paramètres étudiés (pH, production d'AGCC, lactate et métabolites liés à l'intestin) résultant de la fermentation des nutriments dans le milieu nutritionnel appauvri en glucides qui est introduit avec les ingrédients d'essai dans les réacteurs (voir ci-dessous), pour fournir des nutriments essentiels à la population microbienne. Chaque condition a été testée en une seule répétition chez cinq donneurs.
Un milieu nutritionnel appauvri en glucides (contenant les nutriments basaux du côlon) a été ajouté à chaque réacteur (y compris le contrôle), ainsi que 10 % (v/v) d'un inoculum fécal cryoconservé à 7,5 % (qui a servi de source microbienne) de chaque des cinq donneurs, portant le volume total dans les réacteurs à 70 mL. Des billes porteuses de mucine ont été incluses dans chaque réacteur, pour simuler la couche de mucus du côlon. […]

[1] = healthy individuals, vs control
[2] = two Parkinson patients, vs control

| Structure (SMILES) | corrélation (Faecalibacterium) | corrélation (Clostridium_XVIII) | corrélation (Blautia) | corrélation (Blautia; listed as bêta-carotène) | production de butyrate (microbiote intestinal; Parkinson patients, vs control, added 10 mM butyrate taken into account) | production d'acétate (microbiote intestinal; [1]) | production de propionate (microbiote intestinal; [1]) | production de butyrate (microbiote intestinal; healthy individuals, vs control (blank)) | pH (activité de fermentation) (microbiote intestinal; [1]) | production d'acétate (microbiote intestinal; [2]) | production de propionate (microbiote intestinal; [2]) | pH (activité de fermentation) (microbiote intestinal; [2]) |
| --- | --- | --- | --- | --- | --- | --- | --- | --- | --- | --- | --- | --- |
| CC1=C(/C=C/C(C)=C/C=C/C(C)=C/C=C/C=C(C)/C=C/C=C(C)/C=C/C2=C(C)CCCC2(C)C)C(C)(C)CCC1 [Beta-Carotène, bêta-carotène] | 0,12 | 0,11 | 0,14 | corrélation positive significative au seuil de 5% | – | – | – | – | – | – | – | – |
| CCC=CCC=CCC=CCC=CCC=CCC=CCCC(=O)O [DHA, acide docosahexaénoïque] | – | 0,11 and 0,10 | – | – | – | – | – | – | – | – | – | – |
| CCCC(=O)O [butyrate de sodium] | – | – | – | – | a fortement stimulé la production de butyrate; also recorded: a stimulé la production de butyrate dans la population parkinsonienne | concentrations d'acétate similaires à celles du contrôle | concentrations de propionate similaires à celles du contrôle | n'a pas stimulé la production de butyrate; also recorded: pas dans la population en bonne santé | baisses de pH les plus légères | concentrations d'acétate similaires à celles du contrôle | légers effets de stimulation | profils de pH similaires à ceux du contrôle |
